“And” between values parts separate entries of the source, which are not always exact repeats. Identical values can stand only once. “Also recorded” adds a separate entry of the source.
What was measured:
[1] = target: T1, GST-CREB / HA-P300 interaction (Homo sapiens, UniProt P16220); assay: GST-CREB pull-down of HA-P300 from HEK293T lysate; assay type: biochemical; conditions: APC 10 μM
T1 construct: made in house; host or cells: GST-CREB beads (pGEX5X-1); HA-P300 expressed in HEK293T cells
Description: 1 Supplementary Figure 2.
2 a) Immunoblot of HA-P300 recovered from HEK293T cell lysate using GST-CREB beads. APC
3 (10 μM) was incubated with cells for 1-h before FKS (10 nM) stimulation and was included in the
4 following pull-down mixtures (n=3). One of two independent experiments presented here.
5 b) Immunoblot for recovered GFP-CRTC1 or (c) GFP-CRTC3 immunoprecipitated by MYC-CREB
6 from overexpression HEK293T cell line. APC (10 μM) was incubated with cells for 1-h before FKS
7 (10 nM) stimulation and was included in the following pull-down mixtures. One of two independent
8 experiments presented here.
9 d) SPR sonogram traces of APC binding with HIS-CREB proteins immobilized to NTA-chip. The
10 concentration series of APC was as indicated.
11 e) SPR sonogram traces of APC flowing through HIS-CRTC2-S171A proteins immobilized on
12 NTA-chip. The concentration of APC was as indicated.
13 f) The luciferase enzymatic activity of HEK293T incubated with APC. Cells over-expressed
14 luciferase CRE-Luc reporter and were stimulated by FSK (10 nM) for 5-h before lysis, which was
15 then incubated with APC (concentration indicated) for 30 min before luciferase activity determination
16 (n=3 per treatment). Data are represented as mean ± SEM. *, p < 0.05; **, p < 0.01; p values were
17 determined by one-way ANOVA followed Dunnett’s multiple comparisons test. […]

[2] = target: T2, CREB-KID / CBP-KIX interaction (Homo sapiens, UniProt P16220); assay: Two-hybrid assay BD-CREB-KID / AD-CBP-KIX; assay type: cell-based; conditions: HEK293T, 10 μM, 8-h
T2 construct: CBP-KIX and CREB-KID domains as determined by two-hybrid assay; expressed in transfected cells; host or cells: HEK293T
T2 sequence (P16220 87-146 limits assumed): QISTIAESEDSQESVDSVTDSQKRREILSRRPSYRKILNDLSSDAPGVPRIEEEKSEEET

[3] = system: G6pc promoter (G6p-Luc) in the liver; assay: Live imaging of hepatic G6p-Luc reporter; assay type: in vivo, mouse
Excerpt: Complete DNA sequences encoding human Creb and Crtc2 were cloned in the plasmids psc811 and psc804 to express BD-CREB and VP16AD-CRTC2 recombined proteins, respectively. GAL4-luciferase and RSV (Rous Sarcoma Virus)-Renilla were constructed using the pGL3 plasmid. pGEX5X-1 and pET28C were used to construct plasmids for GST- and HIS-tagged proteins expression, respectively. Adenoviruses encoding Ad-HA-Crtc2, Ad-GFP, and Ad-RSV-β-Gal (galactosidase) have been described previously. For infecting primary hepatocytes, 0.5–1 MOI adenovirus was employed. For live imaging experiments, 10^8 plaques forming units (pfu) Ad-G6P-Luc and 5 × 10^7 pfu Ad-RSV-β-gal adenovirus were delivered to mice by tail vein injection. Mice were then imaged on day 3–5 after adenovirus delivery.
After two days of tail intravenously delivery of Ad-G6p-Luc (10^8 pfu) and Ad-RSV-β-Gal (5 × 10^7 pfu) adenoviruses, mice were orally administered propolis or i.p. injected with APC one dose per day for another 3 days. After 16 h fasting, mice were anesthetized using gaseous isoflurane (Abbott), were i.p. injected with 100 mg/kg sterile firefly D-luciferin (Biosynth AG), and 15 min later, imaged by IVIS-100 Imaging System and analyzed with Living Image Software (Xenogen). Liver lysates were prepared to determine β-Gal activity. Luciferase activity detected for each mouse was normalized to the β-Gal expression in the liver.

[4] = system: CREB phosphorylation, CRTC2 dephosphorylation; assay: Immunoblotting/immunostaining of P-CREB and CRTC2 in primary hepatocytes; assay type: cell-based, mouse; conditions: for Relative P-CREB/CREB density: Supp. Fig.10 c, individual replicates
Description: Immunoblotting and immunoprecipitation assays were performed as previously described, with antibodies recognizing CREB, Ser133-P-CREB, AMPK, P-AMPK, AKT, P-AKT (Cell Signaling), PGC-1α (Merck), CRTC2 (Calbiochem), PCK1 (Santa Cruz), SREBP1 (Santa Cruz), SREBP2 (BD), HA (Convance), LXRα (Santa Cruz), FLAG (Sigma), GST (Covance), HIS (Abmart), GAPDH (AOGMA), α-TUBULIN (Abmart), β-ACTIN (Abmart), and other antibodies (Supplementary Table 3). For immunostaining assays, primary cultured hepatocytes seeded on coverslips were fixed with 4% paraformaldehyde for 20 min, permeabilized with 0.3% Triton X-100 in PBS, and then blocked by 5% normal goat serum and 0.3% Triton X-100 in PBS, followed by incubation with anti-CREB (1:1000), anti-P-CREB (1:1000), or anti-HA (1:3000) antibodies for 1 h at 4 °C. Slides were then washed, and after washing, slides were incubated with fluorochrome-conjugated secondary antibodies (Invitrogen). Slides were then washed and mounted with Vectashield mounting media containing 4, 6-diamidino-2-phenylindole (DAPI).

T1 sequence (P16220 whole entry): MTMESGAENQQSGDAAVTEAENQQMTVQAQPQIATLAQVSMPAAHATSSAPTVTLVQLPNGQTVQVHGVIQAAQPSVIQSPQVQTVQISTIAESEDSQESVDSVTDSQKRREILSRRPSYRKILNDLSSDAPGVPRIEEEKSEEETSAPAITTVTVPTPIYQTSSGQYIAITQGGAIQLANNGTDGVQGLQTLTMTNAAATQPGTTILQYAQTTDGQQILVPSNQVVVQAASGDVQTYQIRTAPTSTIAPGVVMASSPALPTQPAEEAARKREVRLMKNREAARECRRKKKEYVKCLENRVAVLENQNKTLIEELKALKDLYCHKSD
T1 sequence (B2RWS6 whole entry partner): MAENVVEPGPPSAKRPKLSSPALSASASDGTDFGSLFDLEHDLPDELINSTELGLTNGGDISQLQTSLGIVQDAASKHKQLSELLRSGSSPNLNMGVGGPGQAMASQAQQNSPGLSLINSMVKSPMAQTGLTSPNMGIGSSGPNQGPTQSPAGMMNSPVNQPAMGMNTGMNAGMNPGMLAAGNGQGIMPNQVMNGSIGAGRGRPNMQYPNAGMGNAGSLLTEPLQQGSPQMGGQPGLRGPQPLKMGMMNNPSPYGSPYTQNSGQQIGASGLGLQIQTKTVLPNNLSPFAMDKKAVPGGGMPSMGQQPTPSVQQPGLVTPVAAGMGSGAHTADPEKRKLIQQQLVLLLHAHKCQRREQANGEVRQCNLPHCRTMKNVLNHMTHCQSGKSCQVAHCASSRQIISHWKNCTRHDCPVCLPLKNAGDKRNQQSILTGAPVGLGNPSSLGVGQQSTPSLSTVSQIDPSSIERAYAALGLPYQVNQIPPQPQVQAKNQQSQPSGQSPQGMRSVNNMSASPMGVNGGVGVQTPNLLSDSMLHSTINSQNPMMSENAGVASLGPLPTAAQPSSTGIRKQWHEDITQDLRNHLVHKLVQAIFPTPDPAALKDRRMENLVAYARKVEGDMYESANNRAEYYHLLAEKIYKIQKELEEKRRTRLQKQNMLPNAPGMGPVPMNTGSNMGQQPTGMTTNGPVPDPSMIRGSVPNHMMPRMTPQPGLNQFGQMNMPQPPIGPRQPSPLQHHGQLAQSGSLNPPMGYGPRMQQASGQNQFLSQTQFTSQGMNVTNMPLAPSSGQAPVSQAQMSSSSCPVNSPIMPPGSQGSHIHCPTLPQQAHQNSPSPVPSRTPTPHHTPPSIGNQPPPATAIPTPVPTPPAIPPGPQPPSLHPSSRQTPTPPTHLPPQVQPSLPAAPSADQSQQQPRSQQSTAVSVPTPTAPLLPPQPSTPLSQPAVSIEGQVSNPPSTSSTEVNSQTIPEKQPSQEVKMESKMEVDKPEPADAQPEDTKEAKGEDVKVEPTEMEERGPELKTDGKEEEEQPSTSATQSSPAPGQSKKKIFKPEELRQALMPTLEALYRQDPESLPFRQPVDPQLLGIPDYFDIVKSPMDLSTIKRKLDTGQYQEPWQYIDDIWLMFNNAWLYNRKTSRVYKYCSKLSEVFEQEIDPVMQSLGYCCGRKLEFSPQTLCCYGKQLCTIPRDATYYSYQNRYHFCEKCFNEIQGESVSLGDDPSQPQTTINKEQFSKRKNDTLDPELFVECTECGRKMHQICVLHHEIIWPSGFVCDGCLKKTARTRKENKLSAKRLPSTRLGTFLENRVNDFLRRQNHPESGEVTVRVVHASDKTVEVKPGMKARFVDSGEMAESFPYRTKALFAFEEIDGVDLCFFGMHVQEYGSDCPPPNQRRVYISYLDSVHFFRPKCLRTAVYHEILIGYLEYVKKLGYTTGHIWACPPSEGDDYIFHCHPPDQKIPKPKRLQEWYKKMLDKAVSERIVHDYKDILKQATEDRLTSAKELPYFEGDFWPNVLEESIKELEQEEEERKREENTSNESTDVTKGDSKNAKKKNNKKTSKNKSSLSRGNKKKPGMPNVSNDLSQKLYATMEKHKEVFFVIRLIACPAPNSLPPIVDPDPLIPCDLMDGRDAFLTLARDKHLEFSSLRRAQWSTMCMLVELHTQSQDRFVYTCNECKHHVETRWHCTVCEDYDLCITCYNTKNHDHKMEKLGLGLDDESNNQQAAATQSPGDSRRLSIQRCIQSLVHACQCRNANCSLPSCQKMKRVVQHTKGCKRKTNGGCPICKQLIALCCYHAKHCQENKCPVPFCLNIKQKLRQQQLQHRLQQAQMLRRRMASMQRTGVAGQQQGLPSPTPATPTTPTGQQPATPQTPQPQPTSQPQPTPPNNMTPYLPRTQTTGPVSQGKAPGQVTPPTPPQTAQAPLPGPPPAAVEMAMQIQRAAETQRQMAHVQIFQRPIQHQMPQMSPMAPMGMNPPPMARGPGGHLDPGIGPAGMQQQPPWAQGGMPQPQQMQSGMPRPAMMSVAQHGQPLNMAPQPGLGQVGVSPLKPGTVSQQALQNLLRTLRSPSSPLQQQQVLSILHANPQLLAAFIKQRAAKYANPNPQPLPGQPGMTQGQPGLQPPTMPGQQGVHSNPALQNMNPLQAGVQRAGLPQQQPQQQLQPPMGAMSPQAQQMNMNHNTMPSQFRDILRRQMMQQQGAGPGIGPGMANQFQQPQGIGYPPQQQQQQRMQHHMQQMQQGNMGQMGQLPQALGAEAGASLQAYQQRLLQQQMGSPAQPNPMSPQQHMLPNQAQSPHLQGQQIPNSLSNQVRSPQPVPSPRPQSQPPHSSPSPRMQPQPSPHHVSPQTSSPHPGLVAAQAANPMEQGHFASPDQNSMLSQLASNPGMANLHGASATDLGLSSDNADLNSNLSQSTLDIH

Compound: CC(C)=CCc1cc(C=CC(=O)O)cc(CC=C(C)C)c1O [APC, 3,5-diprenyl-4-hydroxycinnamic acid]
- association of CREB with P300 [1]: little effect
- interaction of CBP-KIX and CREB-KID domains (two-hybrid) [2]: little effect; also recorded: neither APC nor A57 reduced
- G6P-Luc reporter activity in the livers ([3]; DIO mice, i.p. 20 mg/kg daily, 3 days): substantially decreased
- Relative G6P-LUC activity, folds (mean of column B) ([3]; Figure 8a right, group mean, n=5, VEH mean 0.996): 0.402 folds
- Relative G6P-LUC activity, folds ([3]; Figure 8a right, individual mice, vs VEH): 0.6379 folds and 0.1281 folds and 0.5105 folds and 0.3399 folds and 0.3902 folds
- Relative P-CREB/CREB density ([4]; CT (no glucagon), CTRL about 1.0): 1.21 and 1.302 and 1.2292
- Relative P-CREB/CREB density ([4]; GLUC (glucagon), CTRL about 2.91): 3.03 and 2.994 and 2.993
- CREB phosphorylation induced by glucagon ([4]; primary hepatocytes): very little effect
- CRTC2 dephosphorylation or nuclear translocation ([4]; primary hepatocytes, APC 10 μM, glucagon): very little effect
